# Experimental data reported in PubChem BioAssay AID2060896 (Molecular Pharmacology Branch, DTP, NCI, 2025).
# System: 941728-121-R-J1-PDC complex spheroid viability
# Test: Anticancer human tumor 941728-121-R-J1-PDC patient-derived lung adenocarcinoma cell line growth inhibition [RAS]
# Conditions: for IC50: curve of first compound; for viability, T/C: stronger effect = lower value
# Method in brief: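 Multi-cell-type spheroids: tumor cells plus HUVEC endothelial cells and mesenchymal stem cells. RAS-pathway inhibitors were combined with targeted agents, each dosed in half-log steps down from clinical Cmax, or from 10 microM when Cmax was unknown.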
# [1] = second compound 0.000949 µM, first compound 0.0316 µM
# [2] = second compound 0.000949 µM, first compound 0.1 µM
# [3] = second compound 0.000949 µM, first compound 0.316 µM
# [4] = second compound 0.000949 µM, first compound 1 µM
# [5] = second compound 0.003 µM, first compound 0.0316 µM
# [6] = second compound 0.003 µM, first compound 0.1 µM
# [7] = second compound 0.003 µM, first compound 0.316 µM
# [8] = second compound 0.003 µM, first compound 1 µM
# [9] = second compound 0.00949 µM, first compound 0.0316 µM
# [10] = second compound 0.00949 µM, first compound 0.1 µM
# [11] = second compound 0.00949 µM, first compound 0.316 µM
# [12] = second compound 0.00949 µM, first compound 1 µM
# [13] = second compound 0.03 µM, first compound 0.0316 µM
# [14] = second compound 0.03 µM, first compound 0.1 µM
# [15] = second compound 0.03 µM, first compound 0.316 µM
# [16] = second compound 0.03 µM, first compound 1 µM
# [17] = second compound 0.0949 µM, first compound 0.0316 µM
# [18] = second compound 0.0949 µM, first compound 0.1 µM
# [19] = second compound 0.0949 µM, first compound 0.316 µM
# [20] = second compound 0.0949 µM, first compound 1 µM
# [21] = second compound 0.3 µM, first compound 0.0316 µM
# [22] = second compound 0.3 µM, first compound 0.1 µM
# [23] = second compound 0.3 µM, first compound 0.316 µM
# [24] = second compound 0.3 µM, first compound 1 µM
# 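Further: spheroids exposed to compounds for 7 days before readout.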
# 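Wherever viability, T/C is given: 100% = DMSO vehicle control viability.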
compound,measurement,setting,value
NC1c2ccccc2OC12CCN(c1cnc3c(N4CCCc5ncccc54)n[nH]c3n1)CC2 (centres undefined) + CCn1c(-c2cccnc2C(C)OC)c2c3cc(ccc31)N1CCOC(CC(NC(=O)C(C(C)C)N(C)C(=O)C3(F)CCN(C(=O)C#CC(C)(C)N(C)C)CC3)C(=O)N3CCCC(N3)C(=O)OCC(C)(C)C2)C1,IC50,second compound 0.000949 µM,< 31.6 nM
same,IC50,second compound 0.003 µM,< 31.6 nM
same,IC50,second compound 0.00949 µM,< 31.6 nM
same,IC50,second compound 0.03 µM,< 31.6 nM
same,IC50,second compound 0.0949 µM,< 31.6 nM
same,IC50,second compound 0.3 µM,< 31.6 nM
same,"viability, T/C",[1],18.5%
same,"viability, T/C",[2],17.7%
same,"viability, T/C",[3],12.8%
same,"viability, T/C",[4],17.6%
same,"viability, T/C","second compound 0.000949 µM, first compound 3.16 µM",16.6%
same,"viability, T/C","second compound 0.000949 µM, first compound 10 µM",13.9%
same,"viability, T/C",[5],16.5%
same,"viability, T/C",[6],15.7%
same,"viability, T/C",[7],15.1%
same,"viability, T/C",[8],15.9%
same,"viability, T/C","second compound 0.003 µM, first compound 3.16 µM",17.1%
same,"viability, T/C","second compound 0.003 µM, first compound 10 µM",13.5%
same,"viability, T/C",[9],17.8%
same,"viability, T/C",[10],15.3%
same,"viability, T/C",[11],17.9%
same,"viability, T/C",[12],18.3%
same,"viability, T/C","second compound 0.00949 µM, first compound 3.16 µM",16.7%
same,"viability, T/C","second compound 0.00949 µM, first compound 10 µM",15.4%
same,"viability, T/C",[13],19.2%
same,"viability, T/C",[14],17.6%
same,"viability, T/C",[15],18.8%
same,"viability, T/C",[16],17.1%
same,"viability, T/C","second compound 0.03 µM, first compound 3.16 µM",16.1%
same,"viability, T/C","second compound 0.03 µM, first compound 10 µM",20.3%
same,"viability, T/C",[17],19.7%
same,"viability, T/C",[18],19.4%
same,"viability, T/C",[19],19%
same,"viability, T/C",[20],18.9%
same,"viability, T/C","second compound 0.0949 µM, first compound 3.16 µM",16%
same,"viability, T/C","second compound 0.0949 µM, first compound 10 µM",20.2%
same,"viability, T/C",[21],20.2%
same,"viability, T/C",[22],20.5%
same,"viability, T/C",[23],20.8%
same,"viability, T/C",[24],18.2%
same,"viability, T/C","second compound 0.3 µM, first compound 3.16 µM",18.6%
same,"viability, T/C","second compound 0.3 µM, first compound 10 µM",22.6%
Nc1ccn(C2OC(CO)C(O)C2(F)F)c(=O)n1 (centres undefined) + CCn1c(-c2cccnc2C(C)OC)c2c3cc(ccc31)N1CCOC(CC(NC(=O)C(C(C)C)N(C)C(=O)C3(F)CCN(C(=O)C#CC(C)(C)N(C)C)CC3)C(=O)N3CCCC(N3)C(=O)OCC(C)(C)C2)C1,IC50,second compound 0.000949 µM,< 3.16 nM
same,IC50,second compound 0.003 µM,< 3.16 nM
same,IC50,second compound 0.00949 µM,< 3.16 nM
same,IC50,second compound 0.03 µM,< 3.16 nM
same,IC50,second compound 0.0949 µM,< 3.16 nM
same,IC50,second compound 0.3 µM,< 3.16 nM
same,"viability, T/C","second compound 0.000949 µM, first compound 0.00316 µM",23.9%
same,"viability, T/C","second compound 0.000949 µM, first compound 0.01 µM",20.1%
same,"viability, T/C",[1],18.7%
same,"viability, T/C",[2],18.2%
same,"viability, T/C",[3],19.5%
same,"viability, T/C",[4],15.3%
same,"viability, T/C","second compound 0.003 µM, first compound 0.00316 µM",22%
same,"viability, T/C","second compound 0.003 µM, first compound 0.01 µM",18%
same,"viability, T/C",[5],16.9%
same,"viability, T/C",[6],19.5%
same,"viability, T/C",[7],18.4%
same,"viability, T/C",[8],13.2%
same,"viability, T/C","second compound 0.00949 µM, first compound 0.00316 µM",22.1%
same,"viability, T/C","second compound 0.00949 µM, first compound 0.01 µM",15.5%
same,"viability, T/C",[9],18.8%
same,"viability, T/C",[10],18.2%
same,"viability, T/C",[11],20.9%
same,"viability, T/C",[12],17%
same,"viability, T/C","second compound 0.03 µM, first compound 0.00316 µM",20.4%
same,"viability, T/C","second compound 0.03 µM, first compound 0.01 µM",20.4%
same,"viability, T/C",[13],21.4%
same,"viability, T/C",[14],17.4%
same,"viability, T/C",[15],14.5%
same,"viability, T/C",[16],17.7%
same,"viability, T/C","second compound 0.0949 µM, first compound 0.00316 µM",21.6%
same,"viability, T/C","second compound 0.0949 µM, first compound 0.01 µM",22.1%
same,"viability, T/C",[17],20.1%
same,"viability, T/C",[18],17.6%
same,"viability, T/C",[19],19.5%
same,"viability, T/C",[20],16.7%
same,"viability, T/C","second compound 0.3 µM, first compound 0.00316 µM",20.3%
same,"viability, T/C","second compound 0.3 µM, first compound 0.01 µM",20.6%
same,"viability, T/C",[21],17.6%
same,"viability, T/C",[22],18.1%
same,"viability, T/C",[23],16.6%
same,"viability, T/C",[24],19.2%
